Source: publication PMC6213796, “Purification and Identification of Angiotensin I-Converting Enzyme Inhibitory Peptides and the Antihypertensive Effect of Chlorella sorokiniana Protein Hydrolysates” (Nutrients, 2018)
Where two headings read alike, the source gives them in different places. One block for each compound: values may come before it. Residues, ends and D or L forms follow the SMILES beside them.

Assays:
Rabbit lung ACE = target: T1, Rabbit lung ACE (Oryctolagus cuniculus, UniProt P12822); assay: In vitro assay for ACE-inhibitory activity (HHL substrate, RP-HPLC of hippuric acid); type: biochemical; conditions: for ACE Inhibitory (%): RP-HPLC peaks of fraction F of PN-1G, at peptide content 0.01-0.03 mg/mL
T1 construct: ACE of rabbit lung, and other chemicals of analytical grade were obtained from Sigma Chemical Co; purchased Sigma Chemical Co. (St. Louis, MO, USA); host or cells: rabbit lung tissue
T1 sequence (P12822 34-1310): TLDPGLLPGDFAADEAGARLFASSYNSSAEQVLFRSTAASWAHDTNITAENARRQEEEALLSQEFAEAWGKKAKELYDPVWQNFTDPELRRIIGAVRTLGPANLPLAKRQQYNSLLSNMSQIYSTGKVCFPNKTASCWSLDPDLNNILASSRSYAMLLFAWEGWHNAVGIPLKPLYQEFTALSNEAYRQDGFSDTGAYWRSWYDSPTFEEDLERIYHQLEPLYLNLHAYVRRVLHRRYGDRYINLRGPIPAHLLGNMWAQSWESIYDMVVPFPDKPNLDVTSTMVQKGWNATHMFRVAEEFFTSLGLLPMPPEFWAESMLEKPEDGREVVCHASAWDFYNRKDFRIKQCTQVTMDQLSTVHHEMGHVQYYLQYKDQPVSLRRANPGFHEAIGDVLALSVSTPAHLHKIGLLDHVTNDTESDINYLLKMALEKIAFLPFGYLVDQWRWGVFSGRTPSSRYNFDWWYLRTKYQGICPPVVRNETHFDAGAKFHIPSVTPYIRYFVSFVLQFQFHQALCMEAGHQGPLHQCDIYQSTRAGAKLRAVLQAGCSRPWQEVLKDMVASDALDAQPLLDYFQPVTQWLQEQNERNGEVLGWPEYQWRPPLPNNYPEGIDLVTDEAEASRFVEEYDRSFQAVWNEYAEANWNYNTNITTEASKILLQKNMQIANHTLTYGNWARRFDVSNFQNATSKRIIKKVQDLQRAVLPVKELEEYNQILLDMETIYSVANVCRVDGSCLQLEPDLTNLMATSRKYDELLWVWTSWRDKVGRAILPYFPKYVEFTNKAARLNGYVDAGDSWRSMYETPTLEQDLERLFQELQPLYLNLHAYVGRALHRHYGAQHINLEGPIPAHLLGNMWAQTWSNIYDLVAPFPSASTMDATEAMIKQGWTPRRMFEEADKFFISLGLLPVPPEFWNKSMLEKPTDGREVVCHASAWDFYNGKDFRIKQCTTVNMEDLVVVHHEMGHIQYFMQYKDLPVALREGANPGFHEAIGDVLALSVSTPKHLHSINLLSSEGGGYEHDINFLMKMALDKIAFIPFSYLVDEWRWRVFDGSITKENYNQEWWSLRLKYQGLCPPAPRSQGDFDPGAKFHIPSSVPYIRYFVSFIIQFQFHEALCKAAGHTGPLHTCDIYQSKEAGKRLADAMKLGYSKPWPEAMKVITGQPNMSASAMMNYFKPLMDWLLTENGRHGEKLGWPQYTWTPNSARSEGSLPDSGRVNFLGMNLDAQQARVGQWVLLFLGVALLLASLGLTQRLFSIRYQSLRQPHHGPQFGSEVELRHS
Procedure: In brief, 15 mM HHL was dissolved in 100 mM Na-borate buffer (pH 8.3) supplemented with 300 mM NaCl. […] A mixture containing 75 μL of ACE solution and 75 μL of the sample with a 5000-Da MWCO membrane (Millipore, Burlington, MA, USA) was incubated at 37 °C for 10 min, to which was added 75 μL of HHL solution, and the mixture was incubated for a further 30 min. […] Finally, inhibition activity was calculated using the following formula.Inhibition activity (%) = [(Ec - Es)/(Ec - Eb)] × 100 where Ec is the absorbance with addition of the buffer instead of the test sample (control), Es is the absorbance when the sample was added to the reaction mixture (sample), and Eb is the absorbance when the stop solution was added before the reaction occurred (blank). […] All data presented in this paper are the average of three repeats or mean ± standard deviation (SD).

ACE = conditions: cited from earlier work
SHRs = conditions: tube feeding, after 2 to 4 h, compared with captopril at the same dose; cited from earlier work
[1] = target: angiotensin I-converting enzyme (ACE) of rabbit lung (rabbit) (UniProt P12822)
[2] = target: angiotensin I-converting enzyme (ACE) of rabbit lung (rabbit) (UniProt P12822); remark: listed apart in the source
[3] = peaks F7 to F10, converted from μM, read-out: IC50 (equivalent in mg/mL) (converted)
[4] = peptides of peaks F7 to F10 from PN-1G, read-out: IC50
[5] = ACE-inhibitory peptides from pepsin hydrolysate of Porphyra yezoensis, read-out: IC50

ACE Inhibitory (%) (Rabbit lung ACE): 54.3% | IC50 (Rabbit lung ACE; [3]): 308 µM | IC50 (Rabbit lung ACE; [4]): 307.61 ± 0.01 µM
Compound: CC(C)[C@H](NC(=O)[C@@H](N)Cc1c[nH]c2ccccc12)C(=O)O [Peak F7, Trp–Val] (H-Trp-Val-OH)

Compound: CC(C)[C@H](N)C(=O)N[C@@H](Cc1c[nH]c2ccccc12)C(=O)O [Peak F8, Val–Trp] (H-Val-Trp-OH)
IC50 (Rabbit lung ACE; IC50 (equivalent in mg/mL), peaks F7 to F10, converted from μM): 0.593 µM | IC50 (Rabbit lung ACE; IC50, peptides of peaks F7 to F10 from PN-1G): 0.58 ± 0.02 µM | ACE Inhibitory (%) (Rabbit lung ACE): 86.1%

ACE Inhibitory (%) (Rabbit lung ACE): 95.1% | IC50 (Rabbit lung ACE; [3]): 0.504 µM | IC50 (Rabbit lung ACE; [4]): 0.5 ± 0.01 µM
Compound: CC[C@H](C)[C@H](N)C(=O)N[C@@H](Cc1c[nH]c2ccccc12)C(=O)O [Peak F9, Ile–Trp]

Compound: Ala-Lys-Tyr-Ser-Tyr (AKYSY; printed: Ala-Lys-Tyr-Ser-Tyr)
IC50 (ACE; [5]): 1.52 µM

Compound: Ile-Gln-Pro
IC50 (ACE; peptide from Alcalase hydrolysate, read-out: IC50): 5.77 µM | blood pressure-lowering effect (SHRs): same blood pressure-lowering effect as captopril

ACE Inhibitory (%) of peak F9 at peptide content 0.01 mg/mL [1]: 95.1% | IC50 of inhibition of ACE activity (hydrolysis of HHL to hippuric acid, RP-HPLC, 37 °C, pH 8.3) [2]: 0.5 μM
Compound: Ile-Trp (peptide)

Compound: Ile-Tyr
IC50 (ACE; [5]): 2.69 µM

Compound: Leu-Arg-Tyr
IC50 (ACE; [5]): 5.06 µM

ACE Inhibitory (%) of peak F10 at peptide content 0.01 mg/mL [1]: 87.7% | IC50 of inhibition of ACE activity (hydrolysis of HHL to hippuric acid, RP-HPLC, 37 °C, pH 8.3) [2]: 1.11 μM
Compound: Leu-Trp (peptide)

Compound: Met-Lys-Tyr
IC50 (ACE; [5]): 7.26 µM

Compound: Phe–Ala–Leu
IC50 (ACE; peptide from pepsin hydrolysate of C. vulgaris, read-out: IC50): 26.3 µM

ACE Inhibitory (%) of peak F7 at peptide content 0.01 mg/mL [1]: 54.3% | IC50 of inhibition of ACE activity (hydrolysis of HHL to hippuric acid, RP-HPLC, 37 °C, pH 8.3) [2]: 308 μM
Compound: Trp-Val (peptide)

Compound: VRYL (UniProt P04654 220-223, looked up, fragment)
IC50 (ACE; before hydrolysis with digestive enzymes): 9 µg/mL

ACE Inhibitory (%) of peak F8 at peptide content 0.01 mg/mL [1]: 86.1% | IC50 of inhibition of ACE activity (hydrolysis of HHL to hippuric acid, RP-HPLC, 37 °C, pH 8.3) [2]: 0.58 μM
Compound: Val-Trp (peptide)
